Data reported in patent US20240068044A1, “MARKER COMPOSITION FOR PREDICTING PROGNOSIS OF CANCER, METHOD FOR PROGNOSIS OF CANCER AND METHOD FOR PROVIDING INFORMATION FOR DETERMINING STRATEGY OF CANCER TREATMENT” (priority 2021, published 2024).

Tested on: gastric cancer patients
Test: Multivariable Cox proportional analysis of overall survival: adjuvant chemotherapy vs surgery only, Yonsei cohort, within each molecular subtype
Format: in vivo
Settings: multivariate Cox
Excerpt: It has been examined whether the molecular subtype of the present disclosure may predict the response to the systemic therapy. The Yonsei cohort included patients treated prior to establishment of adjuvant chemotherapy as standard of care. Thus, patients who have been treated with one of the following three assisted chemical therapy methods were able to compare patients who have undergone surgery only:
5-Fluorouracil (5-FU) Alone Therapy
5-FU and Platinum Doublet
Treatment of Systemic Therapy of Another Class in Addition to 5-FU
The inventors of the present disclosure performed a multivariable Cox proportional analysis of the overall survival rate, assisted chemical therapy, cancer operation, age, lymphovascular attack and perineuronal attack as covariates within each genetic group.
In Table 3, the hazard ratio (HR) was calculated using age, cancer stage, Lauren type, neural surrounding invasion state, and chemotherapy treatment as a regulator.

## O=c1[nH]cc(F)c(=O)[nH]1 [5-FU alone, 5-Fluorouracil]
Patient Group 1, VS no-chemotherapy
  Hazard Ratio (95% CI): 2.25 (0.61, 8.35)
Patient Group 2, VS no-chemotherapy
  Hazard Ratio (95% CI): 0.37 (0.14, 0.99)
Patient Group 2, VS no-chemotherapy, listed as 5-FU monotherapy
  Hazard Ratio (95% CI): 0.37
Patient Group 3, VS no-chemotherapy
  Hazard Ratio (95% CI): 0.99 (0.41, 2.38)
Patient Group 4, VS no-chemotherapy
  Hazard Ratio (95% CI): 0.73 (0.30, 1.79)
